How the values were obtained:
Format in all cases: in vivo
[1] = system: green peach aphid (Myzus persicae); assay: whole plant or invertebrate; conditions: in Raphanus sativus, foliar, nymphs, 5th day after the application
Description: Test on effect against green peach aphid (Myzus persicae)
(§1) A Japanese radish leaf was inserted in a test tube in which water was put, and 5 adults of green peach aphid were released on the leaf. On the next day, the adults were removed, and the number of nymphs parasitic on the leaf was counted as the number of tested nymphs, and then the leaf was dipped in a chemical solution of a test compound at a concentration of 200 ppm or 50 ppm. After the chemical solution dried in air, the leaf was left in a constant temperature chamber with lighting at 25° C. On the 5th day after the application, the number of dead nymphs was counted, and the mortality (%) was calculated by the following formula. Nymphs that dropped from the leaf or nymphs that were moribund were counted as dead nymphs.
Mortality (%)=[(Number of dead nymphs)/(number of tested nymphs)]x100

[2] = system: two-spotted spider mite (Tetranychus urticae); assay: Test Example 3: effects against two-spotted spider mite, kidney bean leaf dip; conditions: foliar, adults, 3rd day after the application
Protocol: Test on effects against two-spotted spider mite (Tetranychus urticae) In a chemical solution of a test compound at a concentration of 800 ppm, 200 ppm or 50 ppm, a leaf of kidney bean on which about 20 adults of two-spotted spider mite had been released, was dipped. After the chemical solution dried in air, the leaf was left in a constant temperature chamber with lighting at 25° C. On the 3rd day after the application, the number of dead adults was counted, and the mortality (%) was calculated by the following formula. Adults that dropped from the leaf or adults that were moribund were counted as dead adults.

[3] = system: brown planthopper (Nilaparvata luqens); assay: whole plant or invertebrate; conditions: in Oryza sativa, second to third instar nymphs, 5th day after release
Description: (§2) Test on effect against brown planthopper (Nilaparvata luqens) Rice seedlings were dipped in a chemical solution of a test compound at a concentration of 200 ppm or 50 ppm. After the chemical solution dried in air, the root was wrapped with wet adsorbent cotton, and the seedlings were put into a test tube. About 10 second to third instar nymphs of brown planthopper were released, the test tube was covered with a gauze, and the test tube was left in a constant temperature chamber with lighting at 25° C. On the 5th day after release, the number of dead nymphs was counted, and the mortality (%) was calculated by the following formula.
Mortality (%)=[(number of dead nymphs)/(number of released nymphs)]×100

[4] = system: green peach aphid (Myzus persicae); assay: Comparative Test Example 2: green peach aphid, radish leaf dip; conditions: foliar, 5th day after the application; for mortality at 50 ppm: Active ingredient concentration 50 ppm; for mortality at 200 ppm: Active ingredient concentration 200 ppm
Description: as §1, with “aphid (Myzus persicae)” for “aphid”, “[…].” for “25° C.”
The test compounds were the same as in Comparative Test Example 1.

[5] = system: brown planthopper (Nilaparvata luqens); assay: Comparative Test Example 1: brown planthopper, rice seedling dip; conditions: 5th day after release; for mortality at 50 ppm: Active ingredient concentration 50 ppm; for mortality at 200 ppm: Active ingredient concentration 200 ppm
Protocol: as §2, with “Rice” for “Test on effect against brown planthopper (Nilaparvata luqens) Rice”, “planthopper (Nilaparvata luqens)were” for “planthopper were”
The test compounds are Compound No. 2-12 as the compound of the present invention and the following Comparative Compounds (A) and (B) as the comparative compounds.

| SMILES | mortality at 200 ppm [1] | mortality at 800 ppm [2] | mortality at 200 ppm [3] | mortality at 50 ppm [4] | mortality at 200 ppm [4] | mortality at 50 ppm [5] | mortality at 200 ppm [5] | mortality at 200 ppm [2] |
| --- | --- | --- | --- | --- | --- | --- | --- | --- |
| CCc1nn(-c2c(Cl)cc(C(F)(F)F)cc2Cl)c(=O)c(-n2ccc(C(F)(F)F)n2)c1O [2-97, 2-[2,6-dichloro-4-(trifluoromethyl)phenyl]-6-ethyl-5-hydroxy-4-[3-(trifluoromethyl)-1 H-pyrazol-1-yl]pyridazin-3(2H)-one] | ≥ 90% | ≥ 80% | ≥ 90% | – | – | – | – | – |
| CCc1nn(-c2ccc(C(F)(F)F)cc2Cl)c(=O)c(-n2ccc(C(F)(F)F)n2)c1O [2-12] | ≥ 90% | ≥ 80% | ≥ 90% | 100% | 100% | 100% | 100% | – |
| CCc1ncn(-c2c(O)c(C(C)C)nn(-c3c(C)cc(C(F)(F)F)cc3C)c2=O)n1 [6-134, 2-[2,6-dimethyl-4-(trifluoromethyl)phenyl]-4-(3-ethyl-1 H-1,2,4-triazol-1-yl)-5-hydroxy-6-isopropylpyridazin-3(2H)-one] | ≥ 90% | – | ≥ 90% | – | – | – | – | ≥ 80% |
| Cc1ccn(-c2c(O)c(C(F)(F)F)nn(-c3c(C)cc(C(F)(F)F)cc3C)c2=O)n1 [2-516, 2-[2,6-dimethyl-4-(trifluoromethyl)phenyl]-5-hydroxy-4-(3-methyl-1 H-pyrazol-1-yl)-6-(trifluoromethyl)pyridazin-3(2H)-one] | ≥ 90% | – | ≥ 90% | – | – | – | – | ≥ 80% |
| CCc1nn(-c2ncc(C(F)(F)F)cc2Cl)c(=O)c(-n2ccc(C(F)(F)F)n2)c1O [1-57, 2-[3-chloro-5-(trifluoromethyl)pyridin-2-yl]-6-ethyl-5-hydroxy-4-[3-(trifluoromethyl)-1 H-pyrazol-1-yl]pyridazin-3(2H)-one] | ≥ 90% | – | ≥ 90% | – | – | – | – | – |
| CCc1nn(-c2c(C)cc(S(=O)(=O)C(F)(F)F)cc2C)c(=O)c(-n2ccc(Cl)n2)c1O [2-191, 4-(3-chloro-1 H-pyrazol-1-yl)-2-{2,6-dimethyl-4-[(trifluoromethyl)sulfonyl]phenyl}-6-ethyl-5-hydroxypyridazin-3(2H)-one] | ≥ 90% | – | ≥ 90% | – | – | – | – | – |
| CCc1nn(-c2c(C)cc(C(F)(F)F)cc2C)c(=O)c(-n2cnc([N+](=O)[O-])n2)c1O [6-65, 2-[2,6-dimethyl-4-(trifluoromethyl)phenyl]-6-ethyl-5-hydroxy-4-(3-nitro-1 H-1,2,4-triazol-1-yl)pyridazin-3(2H)-one] | ≥ 90% | – | ≥ 90% | – | – | – | – | – |
| CCc1nn(-c2c(C)cc(C#N)cc2C)c(=O)c(-n2cnc(Cl)n2)c1O [6-136, 4-[5-(3-chloro-1 H-1,2,4-triazol-1-yl)-3-ethyl-4-hydroxy-6-oxopyridazin-1(6H)-yl]-3,5-dimethylbenzonitrile] | ≥ 90% | – | ≥ 90% | – | – | – | – | – |
| COCc1nn(-c2c(C)cc(C(F)(F)F)cc2C)c(=O)c(-n2ccc(Cl)n2)c1O [2-444, 4-(3-chloro-1 H-pyrazol-1-yl)-2-[2,6-dimethyl-4-(trifluoromethyl)phenyl]-5-hydroxy-6-(methoxymethyl)pyridazin-3(2H)-one] | ≥ 90% | – | ≥ 90% | – | – | – | – | – |
| CCc1nn(-c2ccc(C(F)(F)F)cc2Cl)c(=O)c(-c2ccc(F)cc2)c1O [Comparative compound (B)] | – | – | – | 0% | 30% | 0% | 0% | – |
| CCc1nn(C)c(=O)c(-n2ccc(C(F)(F)F)n2)c1O [Comparative compound (A)] | – | – | – | 0% | 20% | 0% | 0% | – |

Source: US20250194601A1, “PYRIDAZINONE COMPOUND OR SALT THEREOF AND PEST CONTROL AGENT CONTAINING IT” (ISHIHARA SANGYO KAISHA, LTD., priority 2022, published 2025)
